{"source": "patent US10253355B2", "about": "“Instrument and system for rapid microorganism identification and antimicrobial agent susceptibility testing” (Accelerate Diagnostics, Inc., priority 2015, dated 2019)", "key": {"[1]": {"system": "Escherichia coli ATCC 35218", "experiment": "AST QC assay on AD-1 instrument, QC isolate E. coli ATCC 35218", "format": "cell-based", "conditions": "unit assumed", "source_text": "(§1) The reportable range for the AST QC assay in some examples are adjusted such that the selected QC isolates have an MIC that is within the reportable range of the QC Assay. These extended ranges are only applied to QC testing and are not applied to AST assessment of patient samples. The process for assigning an MIC value to the QC organisms is the same or similar to that used for patient samples. […] This approach allows testing of, for example, CLSI recommended QC isolates without affecting the algorithms that are optimized around antimicrobial breakpoints. The algorithms used in ID QC or AST QC testing include those described above, for example, when the QC test samples are microbial isolates. For ID QC testing utilizing target microbial nucleic acids coupled to a bead, positive detection is achieved by comparing the cumulative count in the target (e.g., Green fluorescence channel) only against a threshold of objects that have brightness exceeding bead autofluorescence. Negative control detection is achieved by doing the same for eubacteria (e.g., Red fluorescence) channel only. For example, the number of bright red objects should not exceed a threshold in order to pass negative control.\nThe results of the identification assay drive antibiotic selection for antimicrobial susceptibility testing. The remaining samples undergo a pre-growth step to normalize growth rates during the approximately 1-hour FISH ID assay. The concentration of organisms in the purified inoculum was determined by repeating the quantitation process with a universal nucleic acid stain as previously described herein. […] Following cell immobilization, antimicrobial solutions in Mueller-Hinton agar were dispensed into the flowcells. Different antimicrobials were tested in separate flowcells, and only a single concentration of each antimicrobial was used. A growth control consisting of Mueller-Hinton agar without any antimicrobial was included for each run. […]"}, "[2]": {"system": "Staphylococcus aureus ATCC 29213", "experiment": "AST QC assay on AD-1 instrument, QC isolate S. aureus ATCC 29213", "format": "cell-based", "conditions": "for Result (phenotypic positive/negative test): resistance phenotype; for Result (MIC value): unit assumed", "source_text": "as §1\nIn addition, the CLSI required QC isolates for the relevant antimicrobial resistance phenotype assays (MRSA/MSA, and MLSb) may also be tested. When following CLSI recommendations, routine testing of a designated susceptible isolate as well as testing of designated resistant isolates for each new lot and/or new shipment of reagent kits should be performed. These isolates, therefore, may be included in the QC Assay. For example, Cefoxitin may be tested with Staphylococcus aureus ATCC 29213 as the susceptible isolate and Staphylococcus aureus ATCC 43300 may be tested as the resistant isolate.\n(§2) The results of the identification assay drive antibiotic selection for antimicrobial susceptibility testing. The remaining samples undergo a pre-growth step to normalize growth rates during the approximately 1-hour FISH ID assay. The concentration of organisms in the purified inoculum was determined by repeating the quantitation process with a universal nucleic acid stain as previously described herein. […] Following cell immobilization, antimicrobial solutions in Mueller-Hinton agar were dispensed into the flowcells. Different antimicrobials were tested in separate flowcells, and only a single concentration of each antimicrobial was used. A growth control consisting of Mueller-Hinton agar without any antimicrobial was included for each run. A dark-field microscope and camera produced time-lapse images approximately every 10 minutes of progenitor cells growing into clones of daughter cells in each flowcell. The agar ensured daughter cells were immobilized and remained localized to each growing clone. Resistant clones grew while susceptible clones arrest or lyse over time (FIG. 90).\nCustom image analysis software assigned unique spatial XY coordinates to individual progenitor cells (FIG. 91), allowing each growing clone across a series of time-lapse images to be identified. The intensity of each clone can be used as a metric of clone mass in each image. By measuring over time, this metric was used to generate growth curves for each individual clone (FIG. 92). The pattern of cell responses was used to determine the susceptibility of the overall population. […]"}, "[3]": {"system": "Staphylococcus aureus ATCC 43300", "experiment": "AST QC assay on AD-1 instrument, QC isolate S. aureus ATCC 43300", "format": "cell-based", "conditions": "resistance phenotype", "source_text": "as §1, with “For example, the number of bright red objects should not exceed a threshold in order to pass negative control.” left out\nThe results of the identification assay drive antibiotic selection for antimicrobial susceptibility testing. […] The concentration of organisms in the purified inoculum was determined by repeating the quantitation process with a universal nucleic acid stain as previously described herein. […]"}, "[4]": {"system": "methicillin-susceptible S. aureus (MSSA)", "experiment": "Time-lapse imaging of isolates growing in cefoxitin (MSSA)", "format": "cell-based", "conditions": "by 4.5 hours (FIG. 90)", "protocol": "as §2"}, "[5]": {"system": "methicillin-resistant S. aureus (MRSA)", "experiment": "Time-lapse imaging of isolates growing in cefoxitin (MRSA)", "format": "cell-based", "conditions": "by 4.5 hours (FIG. 90)", "protocol": "as §2"}, "[6]": {"system": "Staphylococcus aureus ATCC 29213", "conditions": "cited from earlier work"}, "[7]": {"system": "Staphylococcus aureus ATCC 43300", "conditions": "S. aureus ATCC 43300, cited from earlier work"}, "Pseudomonas strains": {"system": "Pseudomonas strains", "experiment": "Growth of Pseudomonas strains in nutrient-depleted vs standard Mueller-Hinton media with antibiotic, automated microscopy", "format": "cell-based", "protocol": "A series of growth media was formulated with […] strength of standard Mueller-Hinton nutrients (3 g beef infusion 17.5 g casein hydrolysate, 1.5 g starch, the final product being pH adjusted to neutral at 25° C.) while maintaining the agar concentration at 0.94% in the culture media. The effect of this depleted-nutrient media formulation on bacterial cell growth was evaluated with more than 50 strains of Pseudomonas in the presence of a panel of beta-lactam antibiotics. Cells were imaged using automated microscopy as described above. […] FIGS. 85A-C plots the log of bacterial dark phase intensity versus time, which is proportional to measuring cell mass in culture. FIGS. 85D-F are a quantitative representation of the data presented in panels FIGS. 85A-C expressed as rate of bacterial cell division."}}, "note": "Read-outs that look alike come from different tables or passages of the source.", "data": [{"compound": "Ampicillin-Sulbactam", "values": [{"measurement": "Result (MIC value)", "setting": "[1]; AST only report (Table 10)", "result": 16, "unit": "µg/mL"}]}, {"compound": "CO[C@@]1(NC(=O)Cc2cccs2)C(=O)N2C(C(=O)O)=C(COC(N)=O)CS[C@@H]21", "note": "[Cefoxitin]", "values": [{"measurement": "Result (phenotypic positive/negative test)", "setting": "[2]; AST only report (Table 10)", "result": "NEG"}, {"measurement": "Result (phenotypic positive/negative test)", "setting": "[2]; ID and AST report (Table 11)", "result": "NEG"}, {"measurement": "Result (phenotypic positive/negative test)", "setting": "[3]; AST only report (Table 10)", "result": "POS"}, {"measurement": "Result (phenotypic positive/negative test)", "setting": "[3]; ID and AST report (Table 11)", "result": "POS"}, {"measurement": "Clone growth in time-lapse images", "setting": "[4]", "result": "arrested or lysed"}, {"measurement": "Clone growth in time-lapse images", "setting": "[5]", "result": "continue to grow"}, {"measurement": "Organism QC Range (Positive/Negative phenotype)", "setting": "[6]; AST QC panel (Table 9), S. aureus ATCC 29213", "result": "Negative"}, {"measurement": "Expected (phenotypic positive/negative test)", "setting": "[6]; AST only report (Table 10), S. aureus ATCC 29213", "result": "NEG"}, {"measurement": "Expected (phenotypic positive/negative test)", "setting": "[6]; ID and AST report (Table 11), S. aureus ATCC 29213", "result": "NEG"}, {"measurement": "Organism QC Range (Positive/Negative phenotype)", "setting": "[7]; AST QC panel (Table 9)", "result": "Positive"}, {"measurement": "Expected (phenotypic positive/negative test)", "setting": "[7]; AST only report (Table 10)", "result": "POS"}, {"measurement": "Expected (phenotypic positive/negative test)", "setting": "[7]; ID and AST report (Table 11)", "result": "POS"}]}, {"compound": "Piperacillin-Tazobactam", "values": [{"measurement": "Result (MIC value)", "setting": "[1]; AST only report (Table 10)", "result": 1, "unit": "µg/mL"}, {"measurement": "Result (MIC value)", "setting": "[1]; ID and AST report (Table 11)", "result": 1, "unit": "µg/mL"}, {"measurement": "Susceptibility of the bacteria", "setting": "Pseudomonas strains; Pseudomonas isolate of FIGS. 85A-F", "result": "susceptible"}, {"measurement": "Bacterial growth / replication pattern in presence of antibiotic", "setting": "Pseudomonas strains; nutrient-depleted media (approx. 87% reduction in Mueller-Hinton nutrients), within 3.5 hours", "result": "substantially impaired growth"}, {"measurement": "Antibiotic effect on filamentous cells", "setting": "Pseudomonas strains; standard Mueller-Hinton media, 2 to 3.5 hours of exposure", "result": "no discernable antibiotic effect"}]}, {"compound": "Trimethoprim-Sulfamethoxazole", "values": [{"measurement": "Result (MIC value)", "setting": "[2]; AST only report (Table 10)", "result": 0.25, "unit": "µg/mL"}, {"measurement": "Result (MIC value)", "setting": "[2]; ID and AST report (Table 11)", "result": 0.25, "unit": "µg/mL"}]}, {"compound": "CC[C@H]1OC(=O)[C@H](C)[C@@H](O[C@H]2C[C@@](C)(OC)[C@@H](O)[C@H](C)O2)[C@H](C)[C@@H](O[C@@H]2O[C@H](C)C[C@H](N(C)C)[C@H]2O)[C@](C)(O)C[C@@H](C)C(=O)[C@H](C)[C@@H](O)[C@]1(C)O", "note": "[Erythromycin]", "values": [{"measurement": "Result (MIC value)", "setting": "[2]; AST only report (Table 10)", "result": 0.6, "unit": "µg/mL"}, {"measurement": "Organism QC Range (MIC)", "setting": "[6]; AST QC panel (Table 9), CLSI recommended isolate S. aureus ATCC 29213, in µg/mL (unit assumed)", "result": "0.25-1"}, {"measurement": "Expected (MIC acceptance range)", "setting": "[6]; AST only report (Table 10), S. aureus ATCC 29213, in µg/mL (unit assumed)", "result": "0.25-1"}]}]}
